Data published in ChEMBL document CHEMBL1201862, “PubChem BioAssay data set” (2004).
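Following 48 hours of exposure in 96-well plates, responses at five concentrations were used to interpolate endpoints linearly. At the GI50, growth is halved.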 Active and inactive are the calls of the source. Rule as the data show it: active = GI50 up to about 1.1 µM and inactive = higher.

How the values were obtained:
Assay in all cases: NCI tumour cell line growth inhibition, 48 h
NCI-H460 = tested on: NCI-H460
UACC-257 = tested on: UACC-257
MDA-N = tested on: MDA-N
A498 = tested on: A498
SK-MEL-2 = tested on: SK-MEL-2
SF-539 = tested on: SF-539
UACC-62 = tested on: UACC-62
OVCAR-8 = tested on: OVCAR-8
PC-3 = tested on: PC-3
NCI-H522 = tested on: NCI-H522
MDA-MB-231 = tested on: MDA-MB-231
MCF7 = tested on: MCF7
NCI/ADR-RES = tested on: NCI/ADR-RES
SW-620 = tested on: SW-620
U-251 = tested on: U-251
OVCAR-5 = tested on: OVCAR-5
HT-29 = tested on: HT-29
NCI-H23 = tested on: NCI-H23
786-0 = tested on: 786-0
MDA-MB-435 = tested on: MDA-MB-435

SMILES	GI50 (NCI-H460)	GI50 (UACC-257)	GI50 (MDA-N)	GI50 (A498)	GI50 (SK-MEL-2)	GI50 (SF-539)	GI50 (UACC-62)	GI50 (OVCAR-8)	GI50 (PC-3)	GI50 (NCI-H522)	GI50 (MDA-MB-231)	GI50 (MCF7)	GI50 (NCI/ADR-RES)	GI50 (SW-620)	GI50 (U-251)	GI50 (OVCAR-5)	GI50 (HT-29)	GI50 (NCI-H23)	GI50 (786-0)	GI50 (MDA-MB-435)
COC(=O)C1=C(C)N2[C@H](C(=O)O)CO[C@@]2(C)[C@H](C(=O)OC)[C@H]1c1cccc([N+](=O)[O-])c1	> 100 µM (inactive)	> 100 µM (inactive)	> 100 µM (inactive)	> 100 µM (inactive)	> 100 µM (inactive)	> 100 µM (inactive)	> 100 µM (inactive)	> 100 µM (inactive)	> 100 µM (inactive)	> 100 µM (inactive)	> 100 µM (inactive)	> 100 µM (inactive)	> 100 µM (inactive)	> 100 µM (inactive)	> 100 µM (inactive)	> 100 µM (inactive)	> 100 µM (inactive)	> 100 µM (inactive)	> 100 µM (inactive)	> 100 µM (inactive)
O=[N+]([O-])C(Cl)=C/C(=C(\Cl)SCc1ccccc1)[N+](=O)[O-]	28.2 µM (inactive)	29 µM (inactive)	23.4 µM (inactive)	27 µM (inactive)	21.5 µM (inactive)	21 µM (inactive)	28.9 µM (inactive)	23.5 µM (inactive)	22.1 µM (inactive)	20.7 µM (inactive)	27.7 µM (inactive)	38.2 µM (inactive)	36.7 µM (inactive)	21.2 µM (inactive)	16.7 µM (inactive)	23.7 µM (inactive)	24.7 µM (inactive)	37.5 µM (inactive)	30.5 µM (inactive)	18.5 µM (inactive)
OCCCCCNc1c2ccccc2nc2ccccc12	1.01 µM (active)	2.02 µM (inactive)	2.54 µM (inactive)	3.73 µM (inactive)	2.62 µM (inactive)	2.75 µM (inactive)	1.8 µM (inactive)	2.34 µM (inactive)	1.98 µM (inactive)	2.04 µM (inactive)	2.74 µM (inactive)	2.33 µM (inactive)	7.46 µM (inactive)	2.55 µM (inactive)	3.73 µM (inactive)	2.51 µM (inactive)	1.44 µM (inactive)	2.02 µM (inactive)	2.34 µM (inactive)	2.68 µM (inactive)
O=C1OCC/C1=C/c1ccc(/N=N/c2c(O)ccc3ccccc23)cc1	19.7 µM (inactive)	20.7 µM (inactive)	13.8 µM (inactive)	15.1 µM (inactive)	26.7 µM (inactive)	18.4 µM (inactive)	29.5 µM (inactive)	26.7 µM (inactive)	19.9 µM (inactive)	22.9 µM (inactive)	50.2 µM (inactive)	24.8 µM (inactive)	20.1 µM (inactive)	19.2 µM (inactive)	18.7 µM (inactive)	22.3 µM (inactive)	19.4 µM (inactive)	19.5 µM (inactive)	19.1 µM (inactive)	23.1 µM (inactive)
O=C(CSC1=NCCN1)c1ccccc1	> 100 µM (inactive)	> 100 µM (inactive)	> 100 µM (inactive)	> 100 µM (inactive)	> 100 µM (inactive)	> 100 µM (inactive)	> 100 µM (inactive)	> 100 µM (inactive)	> 100 µM (inactive)	> 100 µM (inactive)	> 100 µM (inactive)	> 100 µM (inactive)	> 100 µM (inactive)	> 100 µM (inactive)	> 100 µM (inactive)	> 100 µM (inactive)	> 100 µM (inactive)	> 100 µM (inactive)	> 100 µM (inactive)	> 100 µM (inactive)
CCCCCCCCCCCCCCCCC1=CC(=O)C=C(OC)C1=O	34.4 µM (inactive)	> 100 µM (inactive)	> 100 µM (inactive)	48.5 µM (inactive)	> 100 µM (inactive)	47.3 µM (inactive)	34.7 µM (inactive)	49.3 µM (inactive)	80.4 µM (inactive)	> 100 µM (inactive)	> 100 µM (inactive)	> 100 µM (inactive)	95.5 µM (inactive)	> 100 µM (inactive)	32.5 µM (inactive)	> 100 µM (inactive)	> 100 µM (inactive)	62.2 µM (inactive)	47.2 µM (inactive)	> 100 µM (inactive)
Nc1ccccc1CCCC(=O)O	> 100 µM (inactive)	> 100 µM (inactive)	> 100 µM (inactive)	> 100 µM (inactive)	> 100 µM (inactive)	> 100 µM (inactive)	> 100 µM (inactive)	> 100 µM (inactive)	> 100 µM (inactive)	> 100 µM (inactive)	> 100 µM (inactive)	> 100 µM (inactive)	> 100 µM (inactive)	> 100 µM (inactive)	> 100 µM (inactive)	> 100 µM (inactive)	> 100 µM (inactive)	> 100 µM (inactive)	> 100 µM (inactive)	> 100 µM (inactive)
